Series [1] in a line: Metabolic stability in human hepatocytes assessed as half life measured per million cells incubated upto 60 mins by LC-MS/MS analysis. It is filed as ADME, cell-based, Hepatocyte.
The nature of series [2]: Metabolic stability in human hepatocytes assessed as intrinsic clearance measured per million cells incubated upto 60 mins by LC-MS/MS analysis. It is filed as ADME, cell-based, Hepatocyte. The following applies: read-out: CLH.
Series [3] in a line: Ratio of drug concentration in human blood to plasma at 5 uM incubated for 30 mins by LC-MS/MS analysis. It is filed as ADME, cell-free. Conditions: whole blood.
The nature of series [4]: Plasma protein binding in human assessed as unbound fraction by rapid equilibrium dialysis analysis. Format: ADME, cell-free. In general terms: In equilibrium dialysis free small molecules cross a membrane that holds back macromolecules.

One may read the half-life as the time needed for the level to fall by half in the phase considered. In the case of `O=C(O)/C=C/C(=O)O.[2H]C([2H])([2H])N(C([2H])([2H])[2H])C([2H])([2H])Cc1c[nH]c2ccccc12`, the half-life in series [1] amounted to 207 min. For the same compound, the hepatocyte CLint in series [2] turned out to be 9.3 µL/min/1e6 cells. On to `CCN(CC)CCCC(C)Nc1ccnc2cc(Cl)ccc12` (configuration not stated) [CHLOROQUINE], for which the blood plasma ratio at 0.5 h, 5 µM in series [3] worked out at 4.93. Consider `O=C(O)/C=C/C(=O)O.[2H]C([2H])([2H])N(CCc1c[nH]c2ccccc12)C([2H])([2H])[2H]`, for which the half-life in series [1] came to 117 min. Moreover, the hepatocyte CLint in series [2] came out at 15.2 µL/min/1e6 cells.

`O=C(O)Cc1ccccc1Nc1c(Cl)cccc1Cl` [DICLOFENAC]: the blood plasma ratio at 0.5 h, 5 µM in series [3] amounted to 0.63. What is called fraction unbound is the share of the substance not bound to proteins or other matrix. As to `CNS(=O)(=O)Cc1ccc2[nH]cc(CCN(C)C)c2c1`, the fraction unbound in series [4] came to 0.68.

The values above are taken from ChEMBL document CHEMBL5370593, “Discovery and In Vitro Characterization of SPL028: Deuterated N,N-Dimethyltryptamine” (ACS Med Chem Lett, 2023).
